Data as given in PubChem BioAssay AID2060495 (Molecular Pharmacology Branch, DTP, NCI, 2025).

System: 521955-158-R2-J5-PDC complex spheroid viability
Assay: Anticancer human tumor 521955-158-R2-J5-PDC patient-derived pancreatic carcinoma cell line growth inhibition [GQUAD]
Details: for IC50: curve of first compound; for viability, T/C: stronger effect = lower value
Summary of the method: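 Multi-cell-type spheroids of tumor cells with HUVEC and mesenchymal stem cells, treated with drug combinations. Concentrations descend in half-log steps from near clinical Cmax, or from 10 microM where Cmax is unknown; viability read-out.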

[1] = second compound 0.0316 µM, first compound 0.0316 µM
[2] = second compound 0.0316 µM, first compound 0.316 µM
[3] = second compound 0.1 µM, first compound 0.0316 µM
[4] = second compound 0.1 µM, first compound 0.316 µM
[5] = second compound 0.316 µM, first compound 0.0316 µM
[6] = second compound 0.316 µM, first compound 0.316 µM
[7] = second compound 1 µM, first compound 0.0316 µM
[8] = second compound 1 µM, first compound 0.316 µM
[9] = second compound 3.16 µM, first compound 0.0316 µM
[10] = second compound 3.16 µM, first compound 0.316 µM
[11] = second compound 10 µM, first compound 0.0316 µM
[12] = second compound 10 µM, first compound 0.316 µM
[13] = second compound 0.0316 µM, first compound 0.000999 µM
[14] = second compound 0.0316 µM, first compound 0.00316 µM
[15] = second compound 0.0316 µM, first compound 0.00999 µM
[16] = second compound 0.0316 µM, first compound 0.0999 µM
[17] = second compound 0.1 µM, first compound 0.000999 µM
[18] = second compound 0.1 µM, first compound 0.00316 µM
[19] = second compound 0.1 µM, first compound 0.00999 µM
[20] = second compound 0.1 µM, first compound 0.0999 µM
[21] = second compound 0.316 µM, first compound 0.000999 µM
[22] = second compound 0.316 µM, first compound 0.00316 µM
[23] = second compound 0.316 µM, first compound 0.00999 µM
[24] = second compound 0.316 µM, first compound 0.0999 µM
[25] = second compound 1 µM, first compound 0.000999 µM
[26] = second compound 1 µM, first compound 0.00316 µM
[27] = second compound 1 µM, first compound 0.00999 µM
[28] = second compound 1 µM, first compound 0.0999 µM
[29] = second compound 3.16 µM, first compound 0.000999 µM
[30] = second compound 3.16 µM, first compound 0.00316 µM
[31] = second compound 3.16 µM, first compound 0.00999 µM
[32] = second compound 3.16 µM, first compound 0.0999 µM
[33] = second compound 10 µM, first compound 0.000999 µM
[34] = second compound 10 µM, first compound 0.00316 µM
[35] = second compound 10 µM, first compound 0.00999 µM
[36] = second compound 10 µM, first compound 0.0999 µM
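Also: spheroids exposed to agents for one week before reading.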
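For viability, T/C in this document: 100% = DMSO vehicle control viability.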

`CC(=O)O[C@H]1C(=O)[C@@]2(C)[C@H]([C@H](OC(=O)c3ccccc3)[C@]3(O)C[C@H](OC(=O)[C@H](O)[C@@H](NC(=O)c4ccccc4)c4ccccc4)C(C)=C1C3(C)C)[C@]1(OC(C)=O)CO[C@@H]1C[C@@H]2O` + CN(C)c1ccc(Nc2c3ccc(NC(=O)CCN4CCCC4)cc3nc3cc(NC(=O)CCN4CCCC4)ccc23)cc1 was tested, and the IC50 (second compound 0.0316 µM) was less than 31.6 nM, the IC50 (second compound 0.1 µM) was 44.8 nM and the IC50 (second compound 0.316 µM) was less than 31.6 nM. It also gave an IC50 (second compound 1 µM) of less than 31.6 nM, an IC50 (second compound 3.16 µM) of 31.7 nM and an IC50 (second compound 10 µM) of less than 31.6 nM. For the same compound, the viability, T/C [1] was 46.1%, the viability, T/C (second compound 0.0316 µM, first compound 0.1 µM) was 40.9% and the viability, T/C [2] was 35.2%. The viability, T/C (second compound 0.0316 µM, first compound 1 µM) was 32.3%, the viability, T/C (second compound 0.0316 µM, first compound 3.16 µM) was 27.5% and the viability, T/C (second compound 0.0316 µM, first compound 10 µM) was 34.7%. It also gave a viability, T/C [3] of 55.7%, a viability, T/C (second compound 0.1 µM, first compound 0.1 µM) of 37.6% and a viability, T/C [4] of 30.8%. It also gave a viability, T/C (second compound 0.1 µM, first compound 1 µM) of 23%, a viability, T/C (second compound 0.1 µM, first compound 3.16 µM) of 33.9% and a viability, T/C (second compound 0.1 µM, first compound 10 µM) of 29.9%. It also gave a viability, T/C [5] of 47.7%, a viability, T/C (second compound 0.316 µM, first compound 0.1 µM) of 34.1% and a viability, T/C [6] of 28%. It also gave a viability, T/C (second compound 0.316 µM, first compound 1 µM) of 22.7%, a viability, T/C (second compound 0.316 µM, first compound 3.16 µM) of 29.4% and a viability, T/C (second compound 0.316 µM, first compound 10 µM) of 33.1%. The viability, T/C [7] was 54.6%, the viability, T/C (second compound 1 µM, first compound 0.1 µM) was 33% and the viability, T/C [8] was 28.3%. For the same compound, the viability, T/C (second compound 1 µM, first compound 1 µM) was 33.9%, the viability, T/C (second compound 1 µM, first compound 3.16 µM) was 39.4% and the viability, T/C (second compound 1 µM, first compound 10 µM) was 38.5%. For the same compound, the viability, T/C [9] was 50%, the viability, T/C (second compound 3.16 µM, first compound 0.1 µM) was 31.1% and the viability, T/C [10] was 30.3%. It also gave a viability, T/C (second compound 3.16 µM, first compound 1 µM) of 31.5%, a viability, T/C (second compound 3.16 µM, first compound 3.16 µM) of 33.4% and a viability, T/C (second compound 3.16 µM, first compound 10 µM) of 42%. It also gave a viability, T/C [11] of 50.9%, a viability, T/C (second compound 10 µM, first compound 0.1 µM) of 35.2% and a viability, T/C [12] of 36.4%. For the same compound, the viability, T/C (second compound 10 µM, first compound 1 µM) was 27.8%, the viability, T/C (second compound 10 µM, first compound 3.16 µM) was 29.9% and the viability, T/C (second compound 10 µM, first compound 10 µM) was 35.2%.

Work on `CC[C@@]1(O)C(=O)OCc2c1cc1n(c2=O)Cc2cc3c(CN(C)C)c(O)ccc3nc2-1` + CN(C)c1ccc(Nc2c3ccc(NC(=O)CCN4CCCC4)cc3nc3cc(NC(=O)CCN4CCCC4)ccc23)cc1 yielded an IC50 (second compound 0.0316 µM) of 121 nM, an IC50 (second compound 0.1 µM) of 93.7 nM and an IC50 (second compound 0.316 µM) of 86.4 nM. The IC50 (second compound 1 µM) was 96.7 nM, the IC50 (second compound 3.16 µM) was 80.1 nM and the IC50 (second compound 10 µM) was 79.3 nM. The viability, T/C [13] was 106%, the viability, T/C [14] was 118% and the viability, T/C [15] was 110%. The viability, T/C [1] was 86.7%, the viability, T/C [16] was 55.8% and the viability, T/C [2] was 28.2%. For the same compound, the viability, T/C [17] was 85.3%, the viability, T/C [18] was 108% and the viability, T/C [19] was 95.1%. For the same compound, the viability, T/C [3] was 82.2%, the viability, T/C [20] was 48.2% and the viability, T/C [4] was 41.2%. For the same compound, the viability, T/C [21] was 101%, the viability, T/C [22] was 98.5% and the viability, T/C [23] was 98.7%. It also gave a viability, T/C [5] of 89.4%, a viability, T/C [24] of 44.3% and a viability, T/C [6] of 28.6%. For the same compound, the viability, T/C [25] was 131%, the viability, T/C [26] was 91.6% and the viability, T/C [27] was 95.7%. The viability, T/C [7] was 82.8%, the viability, T/C [28] was 43.1% and the viability, T/C [8] was 24.9%. The viability, T/C [29] was 101%, the viability, T/C [30] was 101% and the viability, T/C [31] was 81.2%. The viability, T/C [9] was 76.9%, the viability, T/C [32] was 41.2% and the viability, T/C [10] was 26.5%. For the same compound, the viability, T/C [33] was 63.7%, the viability, T/C [34] was 62.3% and the viability, T/C [35] was 53.4%. It also gave a viability, T/C [11] of 63.5%, a viability, T/C [36] of 45.2% and a viability, T/C [12] of 31.4%.

`CCc1c2c(nc3ccc(O)cc13)-c1cc3c(c(=O)n1C2)COC(=O)[C@]3(O)CC` + CN(C)c1ccc(Nc2c3ccc(NC(=O)CCN4CCCC4)cc3nc3cc(NC(=O)CCN4CCCC4)ccc23)cc1 showed an IC50 (second compound 0.0316 µM) of 3.29 nM, an IC50 (second compound 0.1 µM) of 3.03 nM and an IC50 (second compound 0.316 µM) of 2.54 nM. It also gave an IC50 (second compound 1 µM) of 2.41 nM, an IC50 (second compound 3.16 µM) of 2.28 nM and an IC50 (second compound 10 µM) of 1.54 nM. It also gave a viability, T/C [13] of 74.6%, a viability, T/C [14] of 49.6% and a viability, T/C [15] of 32.4%. It also gave a viability, T/C [1] of 15.1%, a viability, T/C [16] of 11.6% and a viability, T/C [2] of 9.29%. The viability, T/C [17] was 80.2%, the viability, T/C [18] was 46.8% and the viability, T/C [19] was 31.7%. For the same compound, the viability, T/C [3] was 18%, the viability, T/C [20] was 9.85% and the viability, T/C [4] was 7.27%. The viability, T/C [21] was 84.6%, the viability, T/C [22] was 39.3% and the viability, T/C [23] was 25.3%. The viability, T/C [5] was 12.8%, the viability, T/C [24] was 11.6% and the viability, T/C [6] was 4.59%. The viability, T/C [25] was 89.1%, the viability, T/C [26] was 33.5% and the viability, T/C [27] was 25.4%. The viability, T/C [7] was 15.4%, the viability, T/C [28] was 9.81% and the viability, T/C [8] was 6.13%. The viability, T/C [29] was 75.5%, the viability, T/C [30] was 33.7% and the viability, T/C [31] was 30.4%. The viability, T/C [9] was 17.9%, the viability, T/C [32] was 7.36% and the viability, T/C [10] was 8.33%. It also gave a viability, T/C [33] of 56.9%, a viability, T/C [34] of 37.8% and a viability, T/C [35] of 25%. The viability, T/C [11] was 11.8%, the viability, T/C [36] was 5.13% and the viability, T/C [12] was 6.11%.
